Measurements from PMC8352664 (The Journal of Biological Chemistry, 2021).

Tested on: CD8^+ T cells in PBMCs from convalescent COVID-19 patients
Type: cell-based, human

YLQPSTFLL [S^269–277R273S]
HLA-A2^S269–277+CD8+ T cell cross-reactivity between WT S^269–277 and variant peptide: no HLA-A2^S269–277+CD8^+ T cell cross-reactivity
